Article PMC9332470, “Production and Selection of Antibody–Antigen Pairs for the Development of Immunoenzyme Assay and Lateral Flow Immunoassay Methods for Carbofuran and Its Analogues” (Biosensors, 2022)
Converted amounts (≈) assume the structure as drawn.

Legend:
[1] = tested on: sol–gel-entrapped antibody; conditions: label-free electrochemical immunosensor; cited from earlier work
[2] = tested on: specific antibody against carbofuran; conditions: cited from earlier work
[3] = tested on: mAb with the immunogen BFNB-BSA; conditions: heterologous coating antigen BFNH-OVA; cited from earlier work
[4] = tested on: specific antibody against carbofuran; conditions: double-label time-resolved fluorescent strip; cited from earlier work
[5] = tested on: mAb with the immunogen 3-succinyl-carbofuran-KLH; conditions: cited from earlier work
[6] = tested on: mAb 13C8; test: quantum dot-based LFIA (QD-LFIA) with mAb 13C8; format: binding, BALB/c mice
Experimental: One milliliter of QDs was added to 9 mL of MES (0.054 M at pH 6.0) and centrifuged at 10,956× g for 20 min. Then, the precipitate was resuspended in 10 mL of MES (0.05 M at pH 6.0). After dispersion by ultrasonication for 2 min, EDC (20 mg) and NHS (20 mg) were added, and the reaction mixture was incubated for 30 min, followed by centrifugation at 10,956× g for 20 min. The precipitate was resuspended in 10 mL of MES (0.05 M at pH 6.0). Then, 1 mg of the mAb dissolved in 10 mL MES (0.027 M at pH 8.0) was added to the QD mixture and shaken at 25 °C and 180 rpm for 90 min. After the reaction, 5 mL of MES (0.054 M at pH 6.0 containing 1.6% BSA, w/v) was added, and the mixture was shaken at 25 °C and 180 rpm for 40 min, followed by centrifugation at 10,956× g for 20 min. The precipitate was resuspended in 10 mL of PB (0.01 M at pH 6.0, containing 5% casein, 1% glucose, 1.5% alanine and 0.05% NaN3, w/v) and dispersed by ultrasonication for 2 min.
The conjugate pad (6 mm × 300 mm) was pretreated with PBS (containing 0.5% Triton X-100, 0.5% alanine and 0.05% NaN3, w/v). Then, 1 mL of the mAb–QD conjugate was sprayed onto the pretreated conjugate pad at a flow rate of 10 μL/cm, and the pad was dried at 37 °C for 2 h. Other applied protocols were similar to those mentioned above.
Taking the logarithm of the carbofuran concentration as the abscissa and (B/B0)% as the ordinate, the standard curves for ELISA and QD-LFIA were obtained based on the Morgan–Mercer–Flodin (MMF) model, which were fitted by CurveExpert 1.4.0 software (https://www.curveexpert.net, accessed on 15 July 2022). For the ELISA method, B and B0 are the absorbance of the sample well and blank well, respectively. For the QD-LFIA method, B and B0 are the T/C (fluorescence intensity of the test line/fluorescence intensity of the control line) of the sample and blank control, respectively.
(§1) The inhibition ratio (I%) was calculated as (B0-B)/B0 × 100%. IC50 is the concentration of the carbofuran at an I% of 50%, and the limit of detection (LOD) was determined as the concentration showing 10% of inhibition.
The cross-reactivities (CRs) of benfuracarb, carbosulfan, 3-hydroxy-carbofuran, metolcarb, carbaryl, isoprocarb and aldicarb with carbofuran were assessed by ELISA and QD-LFIA. CR was calculated as CR (%) = [IC50 (carbofuran)/IC50 (analogues)] × 100%.
Then, to prepare QD-LFIA test strips, DDB-BSA (40 μg/mL), DDB-OVA (50 μg/mL), MDA-BSA (35 μg/mL) and MDA-OVA (30 μg/mL) were dispensed onto the NC membrane, and antibody 13C8 was conjugated to the QDs. Carbofuran standards (0, 0.05, 0.15, 0.45, 1.35 and 4.05 ng/mL) were detected to obtain a standard curve, and the IC50 was calculated. […] In LFIA, carbofuran in solution competed with the coating antigen on the NC membrane for antibody 13C8 conjugated to the QDs.
A standard curve was developed with the inhibition ratio (B/B0) versus the logarithm of the concentration of carbofuran.

[7] = tested on: mAb 13C8; test: ELISA reactivity of hybridoma supernatant, cell line 13C8; format: binding, BALB/c mice; conditions: cell line 13C8 supernatant, 50 ng/mL pesticide
Experimental: The desired antibodies with the highest affinity were screened by icELISA with carbofuran as a competitive compound, and hybridoma cells were cloned by the limited dilution method. Then, the selected hybridoma cells were injected into mice for ascites production. Finally, the mAbs were purified by (NH4)2SO4 with saturation of 50% and further purified by an SPA column.
Microplates were coated with coating antigens. Different concentrations of the standard (50 µL) and the mAb (50 µL) were added to each well, and the plates were incubated for 20 min at 37 °C. The plates were washed with PBS (0.01 M, containing 0.05% (v/v) Triton X-100), 100 μL of goat anti-mouse IgG-HRP conjugate solution was added to each well, and the plates were incubated for 20 min at 37 °C. After the plates were washed with PBS (0.01 M, containing 0.05% Triton X-100, v/v), 100 µL of TMB single-component substrate solution was added to each well, followed by incubation at 37 °C for 10 min. Finally, the reaction was terminated, and the absorbance at 450 nm was measured by a microplate reader.
as §1
Then, the reactivity of the supernatant of the six cell lines to 50 ng/mL carbofuran, benfuracarb and carbosulfan was assessed by ELISA, and the results are shown in Table 1. […] Because 13C8 had the highest reactivity with carbofuran, benfuracarb and carbosulfan among the six cell lines, it was injected into mice for ascites production, and the mAbs were purified by a protein A column for further experiments.

## CNC(=O)Oc1cccc2c1OC(C)(C)C2 [carbofuran]
[1]
  detection limit: 0.33 ng/mL
[2]
  IC50 (direct competitive ELISA): 1.3 ng/mL (≈ 5.88 nM)
[3]
  IC50 (ic-ELISA): 0.66 ng/mL (≈ 2.98 nM)
[4]
  detection limit: 0.76 ng/mL
[5]
  CR(%) (ic-ELISA): 100.0%
  IC50 (ic-ELISA): 0.76 ± 0.07 ng/mL (≈ 3.43 nM)
[6]; CR = IC50(carbofuran)/IC50(analogue) x 100%, QD-LFIA with mAb 13C8
  CR (%) (QD-LFIA): 100.0%
[6]; antibody 13C8, antigen DDB-BSA (40 μg/mL) on NC membrane
  IC50 (QD-LFIA): >1000 ng/mL
[6]; antibody 13C8, antigen DDB-OVA (50 μg/mL) on NC membrane
  IC50 (QD-LFIA): >1000 ng/mL
[6]; antibody 13C8, antigen MDA-BSA (35 μg/mL) on NC membrane
  IC50 (QD-LFIA): 0.68 ± 0.03 ng/mL (≈ 3.07 nM)
[6]; antibody 13C8, antigen MDA-OVA (30 μg/mL) on NC membrane
  IC50 (QD-LFIA): 0.66 ± 0.03 ng/mL (≈ 2.98 nM)
[6]; concentration showing 10% of inhibition
  detection limit (QD-LFIA): 0.04 ng/mL
[6]; homologous coating antigens DDB-BSA and DDB-OVA
  reaction of QD-LFIA test strips: almost no reaction
[6]; optimized QD-LFIA
  working range (QD-LFIA): 0.04 to 4.21 ng/mL
[6]; optimized QD-LFIA, mAb 13C8-QD, T line antigen 30 μg/mL, given as MDA-BSA and MDA-OVA
  IC50 (QD-LFIA): 0.67 ± 0.08 ng/mL (≈ 3.03 nM)
[6]; span over MDA-BSA and MDA-OVA
  IC50 of QD-LFIA with heterologous coating antigens: 0.66–0.68 ng/mL
[7]
  Reactivity of mAb (I%): 95%
